Measured values published in patent US3940382A, “1,2'-Di-N-substituted kanamycin B compounds” (Zaidan Hojin Biseibutsu Kagaku Kenkyu Kai, priority 1973, dated 1976).
Converted amounts (≈) assume the structure as drawn.

How the values were obtained:
[1] = tested on: Staphylococcus aureus Smith; test: MIC, serial dilution on nutrient agar; assay type: cell-based; conditions: Staphylococcus aureus Smith; nutrient agar, 37°C, 18 hours; read-out: Minimum Inhibitory Concentrations
[2] = tested on: Staphylococcus aureus FDA 209P; test: MIC, serial dilution on nutrient agar; assay type: cell-based; conditions: FDA209P; Staphylococcus aureus FDA 209P; nutrient agar, 37°C, 18 hours; read-out: Minimum Inhibitory Concentrations
[3] = tested on: Staphylococcus aureus Terejima; test: MIC, serial dilution on nutrient agar; assay type: cell-based; conditions: Staphylococcus aureus Terejima; nutrient agar, 37°C, 18 hours; read-out: Minimum Inhibitory Concentrations
Sarcina lutea PCI 1001 = test: MIC, serial dilution on nutrient agar; assay type: cell-based; conditions: Micrococcus luteus, PCI1001; Sarcina lutea PCI 1001; nutrient agar, 37°C, 18 hours; read-out: Minimum Inhibitory Concentrations
Bacillus anthracis = test: microbe, parasite or virus in culture; assay type: cell-based; conditions: 18 h, read-out: Minimum Inhibitory Concentrations
[4] = tested on: Bacillus subtilis PCI 219; test: MIC, serial dilution on nutrient agar; assay type: cell-based; conditions: PCI219; Bacillus subtilis PCI 219; nutrient agar, 37°C, 18 hours; read-out: Minimum Inhibitory Concentrations
[5] = tested on: Bacillus subtilis NRRL B-558; test: MIC, serial dilution on nutrient agar; assay type: cell-based; conditions: NRRLB558; Bacillus subtilis NRRL B-558; nutrient agar, 37°C, 18 hours; read-out: Minimum Inhibitory Concentrations
[6] = tested on: Bacillus cereus ATCC 10702; test: MIC, serial dilution on nutrient agar; assay type: cell-based; conditions: ATCC10702; Bacillus cereus ATCC 10702; nutrient agar, 37°C, 18 hours; read-out: Minimum Inhibitory Concentrations
[7] = tested on: Corynebacterium bovis 1810; test: MIC, serial dilution on nutrient agar; assay type: cell-based; conditions: Corynebacterium bovis 1810; nutrient agar, 37°C, 18 hours; read-out: Minimum Inhibitory Concentrations
[8] = tested on: Mycobacterium smegmatis ATCC 607; test: MIC, serial dilution on nutrient agar; assay type: cell-based; conditions: Mycolicibacterium smegmatis, ATCC607; Mycobacterium smegmatis ATCC 607; nutrient agar, 37°C, 18 hours; read-out: Minimum Inhibitory Concentrations
[9] = tested on: Shigella dysenteriae JS 11910; test: MIC, serial dilution on nutrient agar; assay type: cell-based; conditions: JS11910, 18 h, read-out: Minimum Inhibitory Concentrations
[10] = tested on: Escherichia coli K-12 ML 1630; test: MIC, serial dilution on nutrient agar; assay type: cell-based; conditions: K12ML1630, 37°C, 18 hours, read-out: Minimum Inhibitory Concentrations
Method: (§1) The minimum inhibitory concentrations (mcg/ml) of 1,2'-di-N-[(S)-4-amino-2-hydroxybutyryl]-kanamycin B (abbreviated as 1,2'-AHB-KMB), 1,2'-di-N-[(S)-4-amino-2-hydroxybutyryl]-3',4'-dideoxykanamycin B (abbreviated as 1,2'-AHB-DKB), 1,2'-di-N-DL-isoseryl-3',4'-dideoxykanamycin B (abbreviated as 1,2'-IS-DKB) and 1,2'-di-N-DL-isoseryl-kanamycin B (abbreviated as 1,2'-IS-KMB) against various microorganisms were determined according to serial dilution method using nutrient agar medium at 37°C, the estimation being effected after 18 hours incubation. For comparison, the minimum inhibitory concentrations of kanamycin B (abbreviated as KMB) and 3',4'-dideoxykanamycin B (abbreviated as DKB) were also determined in the same manner as mentioned above.

[11] = tested on: Shigella flexneri 4b JS 11811; test: MIC, serial dilution on nutrient agar; assay type: cell-based; conditions: 4BJS11811, 37°C, 18 hours, read-out: Minimum Inhibitory Concentrations
Method: as §1

Shigella sonnei JS 11746 = test: MIC, serial dilution on nutrient agar; assay type: cell-based; conditions: JS11746, 37°C, 18 hours, read-out: Minimum Inhibitory Concentrations
Method: as §1

Salmonella typhosa T-63 = test: MIC, serial dilution on nutrient agar; assay type: cell-based; conditions: Salmonella enterica, 18 h, read-out: Minimum Inhibitory Concentrations
[12] = tested on: Salmonella enteritidis 1891; test: MIC, serial dilution on nutrient agar; assay type: cell-based; conditions: Salmonella enterica, ENTERITIDIS, 18 h, read-out: Minimum Inhibitory Concentrations
Proteus vulgaris OX 19 = test: MIC, serial dilution on nutrient agar; assay type: cell-based; conditions: OX19; Proteus vulgaris OX 19; nutrient agar, 37°C, 18 hours; read-out: Minimum Inhibitory Concentrations
[13] = tested on: Klebsiella pneumoniae PCI 602; test: MIC, serial dilution on nutrient agar; assay type: cell-based; conditions: PCI602; Klebsiella pneumoniae PCI 602; nutrient agar, 37°C, 18 hours; read-out: Minimum Inhibitory Concentrations
[14] = tested on: Klebsiella pneumoniae 22 -3038; test: MIC, serial dilution on nutrient agar; assay type: cell-based; conditions: 223038; Klebsiella pneumoniae 22 -3038; nutrient agar, 37°C, 18 hours; read-out: Minimum Inhibitory Concentrations
Escherichia coli NIHJ = test: MIC, serial dilution on nutrient agar; assay type: cell-based; conditions: Escherichia coli NIHJ; nutrient agar, 37°C, 18 hours; read-out: Minimum Inhibitory Concentrations
Escherichia coli K-12 = test: MIC, serial dilution on nutrient agar; assay type: cell-based; conditions: K12; Escherichia coli K-12; nutrient agar, 37°C, 18 hours; read-out: Minimum Inhibitory Concentrations
[15] = tested on: Escherichia coli K-12 ML 1629; test: MIC, serial dilution on nutrient agar; assay type: cell-based; conditions: K12ML1629; Escherichia coli K-12 ML 1629; nutrient agar, 37°C, 18 hours; read-out: Minimum Inhibitory Concentrations
[16] = tested on: Escherichia coli K-12 ML 1410; test: MIC, serial dilution on nutrient agar; assay type: cell-based; conditions: Escherichia coli, K12ML1410, 18 h, read-out: Minimum Inhibitory Concentrations
[17] = tested on: Escherichia coli K-12 ML 1410 R81; test: MIC, serial dilution on nutrient agar; assay type: cell-based; conditions: 18 h, read-out: Minimum Inhibitory Concentrations
[18] = tested on: Escherichia coli LA290 R55; test: MIC, serial dilution on nutrient agar; assay type: cell-based; conditions: LA290R55, 18 h, read-out: Minimum Inhibitory Concentrations
[19] = tested on: Escherichia coli LA290 R56; test: MIC, serial dilution on nutrient agar; assay type: cell-based; conditions: LA290R56, 18 h, read-out: Minimum Inhibitory Concentrations
[20] = tested on: Escherichia coli LA290 R64; test: MIC, serial dilution on nutrient agar; assay type: cell-based; conditions: LA290R64, 18 h, read-out: Minimum Inhibitory Concentrations
Escherichia coli W677 = test: MIC, serial dilution on nutrient agar; assay type: cell-based; conditions: Escherichia coli W677; nutrient agar, 37°C, 18 hours; read-out: Minimum Inhibitory Concentrations
[21] = tested on: Escherichia coli JR66/W677; test: MIC, serial dilution on nutrient agar; assay type: cell-based; conditions: Escherichia coli JR66/W677; nutrient agar, 37°C, 18 hours; read-out: Minimum Inhibitory Concentrations
[22] = tested on: Pseudomonas aeruginosa A3; test: MIC, serial dilution on nutrient agar; assay type: cell-based; conditions: Pseudomonas aeruginosa, A3, 18 h, read-out: Minimum Inhibitory Concentrations
[23] = tested on: Pseudomonas aeruginosa No.12; test: MIC, serial dilution on nutrient agar; assay type: cell-based; conditions: Pseudomonas aeruginosa No.12; nutrient agar, 37°C, 18 hours; read-out: Minimum Inhibitory Concentrations
[24] = tested on: Pseudomonas aeruginosa TI-13; test: MIC, serial dilution on nutrient agar; assay type: cell-based; conditions: Pseudomonas aeruginosa, TI13, 18 h, read-out: Minimum Inhibitory Concentrations
[25] = tested on: Pseudomonas aeruginosa GN315; test: MIC, serial dilution on nutrient agar; assay type: cell-based; conditions: Pseudomonas aeruginosa GN315; nutrient agar, 37°C, 18 hours; read-out: Minimum Inhibitory Concentrations
[26] = tested on: Pseudomonas aeruginosa 99; test: MIC, serial dilution on nutrient agar; assay type: cell-based; conditions: Pseudomonas aeruginosa 99; nutrient agar, 37°C, 18 hours; read-out: Minimum Inhibitory Concentrations
[27] = tested on: kanamycin-resistant strains; conditions: strains phosphorylating the 3'-hydroxyl group of kanamycins; cited from earlier work
[28] = tested on: Escherichia coli JR66/W677; conditions: strain adenylylating the 2"-hydroxyl group; cited from earlier work
drug-resistant bacteria = conditions: cited from earlier work
[29] = tested on: kanamycin-resistant bacteria; conditions: some kanamycin-resistant bacteria; cited from earlier work
[30] = tested on: ribostamycin-resistant bacteria; conditions: some ribostamycin-resistant bacteria; cited from earlier work

## NC[C@@H]1CC[C@@H](N)[C@@H](O[C@H]2[C@H](O)[C@@H](O[C@H]3O[C@H](CO)[C@@H](O)[C@H](N)[C@H]3O)[C@H](N)C[C@@H]2N)O1 [DKB, 3',4'-dideoxykanamycin B, reference compound]
[1]
  MIC: < 0.2 µg/mL
[2]
  MIC: < 0.2 µg/mL
[3]
  MIC: < 0.2 µg/mL
Sarcina lutea PCI 1001
  MIC: 6.25 µg/mL (≈ 13.8 µM)
Bacillus anthracis
  MIC: < 0.2 µg/mL
[4]
  MIC: < 0.2 µg/mL
[5]
  MIC: < 0.2 µg/mL
[6]
  MIC: 0.78 µg/mL (≈ 1.73 µM)
[7]
  MIC: 3.13 µg/mL (≈ 6.93 µM)
[8]
  MIC: 0.39 µg/mL (≈ 0.864 µM)
[9]
  MIC: 1.56 µg/mL (≈ 3.45 µM)
[10]
  MIC: 0.78 µg/mL (≈ 1.73 µM)
[11]
  MIC: 1.56 µg/mL (≈ 3.45 µM)
Shigella sonnei JS 11746
  MIC: 0.78 µg/mL (≈ 1.73 µM)
Salmonella typhosa T-63
  MIC: < 0.2 µg/mL
[12]
  MIC: 1.56 µg/mL (≈ 3.45 µM)
Proteus vulgaris OX 19
  MIC: < 0.2 µg/mL
[13]
  MIC: 0.39 µg/mL (≈ 0.864 µM)
[14]
  MIC: 100 µg/mL (≈ 221 µM)
Escherichia coli NIHJ
  MIC: 0.39 µg/mL (≈ 0.864 µM)
Escherichia coli K-12
  MIC: 0.78 µg/mL (≈ 1.73 µM)
[15]
  MIC: 0.78 µg/mL (≈ 1.73 µM)
[16]
  MIC: 1.56 µg/mL (≈ 3.45 µM)
[17]
  MIC: 1.56 µg/mL (≈ 3.45 µM)
[18]
  MIC: 50 µg/mL (≈ 111 µM)
[19]
  MIC: 12.5 µg/mL (≈ 27.7 µM)
[20]
  MIC: 6.25 µg/mL (≈ 13.8 µM)
Escherichia coli W677
  MIC: 0.2 µg/mL (≈ 0.443 µM)
[21]
  MIC: 50 µg/mL (≈ 111 µM)
[22]
  MIC: 1.56 µg/mL (≈ 3.45 µM)
[23]
  MIC: 0.78 µg/mL (≈ 1.73 µM)
[24]
  MIC: 1.56 µg/mL (≈ 3.45 µM)
[25]
  MIC: > 100 µg/mL
[26]
  MIC: 3.13 µg/mL (≈ 6.93 µM)
[27]
  effectiveness against kanamycin-resistant strains: actually effective
[28]
  activity against kanamycin-resistant strains such as Escherichia coli JR66/W677: practically inactive
drug-resistant bacteria
  antibacterial activity against the drug-resistant bacteria: improved antibacterial activity

## NCC[C@H](O)C(=O)N[C@@H]1C[C@H](N)[C@@H](O[C@H]2O[C@H](CN)[C@@H](O)[C@H](O)[C@H]2N)[C@H](O[C@@H]2O[C@H](CO)[C@@H](O)[C@H]2O)[C@H]1O [butirosin B, 1-N-[(S)-α-hydroxy-γ-amino-n-butyryl]-ribostamycin]
[29]
  activity against kanamycin-resistant bacteria: active
[30]
  activity against ribostamycin-resistant bacteria: active
